Results published in PubChem BioAssay (NCI).
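Grown in 96-well plates, cells were treated for 48 hours with each compound at five concentrations. Insufficient inhibition: endpoint recorded as highest concentration tested. TGI marks complete inhibition of growth.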

Experiments:
Assay in all cases: NCI-60 cell line screen, 48 h
[1] = tested on: 786-0 renal
[2] = tested on: A498 renal
[3] = tested on: A549 NSCLC
[4] = tested on: ACHN renal
[5] = tested on: BT-549 breast
[6] = tested on: CAKI-1 renal
[7] = tested on: CCRF-CEM leukemia
[8] = tested on: COLO 205 colon
[9] = tested on: DU-145 prostate
[10] = tested on: EKVX NSCLC
[11] = tested on: HCC-2998 colon
[12] = tested on: HCT-116 colon
[13] = tested on: HCT-15 colon
[14] = tested on: HL-60(TB) leukemia
[15] = tested on: HOP-62 NSCLC
[16] = tested on: HOP-92 NSCLC
[17] = tested on: HS 578T breast
[18] = tested on: HT29 colon
[19] = tested on: IGROV1 ovarian
[20] = tested on: KM12 colon
[21] = tested on: LOX IMVI melanoma
[22] = tested on: M14 melanoma
[23] = tested on: MALME-3M melanoma
[24] = tested on: MDA-MB-231 breast
[25] = tested on: MDA-MB-435
[26] = tested on: MDA-N
[27] = tested on: MOLT-4 leukemia
[28] = tested on: NCI-H226 lung
[29] = tested on: NCI-H460 lung
[30] = tested on: NCI-H522 lung
[31] = tested on: NCI/ADR-RES ovarian
[32] = tested on: OVCAR-3 ovarian
[33] = tested on: OVCAR-4 ovarian
[34] = tested on: OVCAR-5 ovarian
[35] = tested on: OVCAR-8 ovarian
[36] = tested on: PC-3 prostate
[37] = tested on: RPMI-8226 leukemia
[38] = tested on: RXF 393 renal
[39] = tested on: SF-268 CNS
[40] = tested on: SF-295 CNS
[41] = tested on: SF-539 CNS
[42] = tested on: SK-MEL-2 melanoma
[43] = tested on: SK-MEL-28 melanoma
[44] = tested on: SK-MEL-5 melanoma
[45] = tested on: SK-OV-3 ovarian
[46] = tested on: SN12C renal
[47] = tested on: SNB-19 CNS
[48] = tested on: SNB-75 CNS
[49] = tested on: SR leukemia
[50] = tested on: SW-620 colon
[51] = tested on: T-47D breast
[52] = tested on: TK-10 renal
[53] = tested on: U251 CNS
[54] = tested on: UACC-257 melanoma
[55] = tested on: UACC-62 melanoma
[56] = tested on: UO-31 renal
[57] = tested on: K-562 leukemia
[58] = tested on: MCF7 breast
[59] = tested on: NCI-H23 lung

**Q.** `CCN(CC)C(=S)N/N=C(\C)c1cccc(C)n1` was tested. Which TGI [1] did it give?
**A.** 1.36 µM

**Q.** What about the TGI [2] of the same compound?
**A.** 0.572 µM

**Q.** And the TGI [3]?
**A.** 11.4 µM

**Q.** And the TGI [4]?
**A.** 1.92 µM

**Q.** What about the TGI [5] of the same compound?
**A.** 18.8 µM

**Q.** And the TGI [6]?
**A.** 16.6 µM

**Q.** And the TGI [7]?
**A.** > 100 µM

**Q.** What about the TGI [8] of the same compound?
**A.** 12.1 µM

**Q.** And the TGI [9]?
**A.** 4.96 µM

**Q.** And the TGI [10]?
**A.** 15.5 µM

**Q.** And the TGI [11]?
**A.** 9.6 µM

**Q.** And the TGI [12]?
**A.** 1.34 µM

**Q.** What about the TGI [13] of the same compound?
**A.** 18 µM

**Q.** And the TGI [14]?
**A.** 0.626 µM

**Q.** What about the TGI [15] of the same compound?
**A.** 12.7 µM

**Q.** And the TGI [16]?
**A.** 4.49 µM

**Q.** And the TGI [17]?
**A.** > 81.8 µM

**Q.** What about the TGI [18] of the same compound?
**A.** 1.78 µM

**Q.** What about the TGI [19] of the same compound?
**A.** 12.7 µM

**Q.** And the TGI [20]?
**A.** 6.53 µM

**Q.** And the TGI [21]?
**A.** 2.55 µM

**Q.** What about the TGI [22] of the same compound?
**A.** 4.63 µM

**Q.** And the TGI [23]?
**A.** 7.4 µM

**Q.** And the TGI [24]?
**A.** 19.6 µM

**Q.** What about the TGI [25] of the same compound?
**A.** 7.76 µM

**Q.** What about the TGI [26] of the same compound?
**A.** 13.7 µM

**Q.** What about the TGI [27] of the same compound?
**A.** > 71.5 µM

**Q.** And the TGI [28]?
**A.** 5.7 µM

**Q.** What about the TGI [29] of the same compound?
**A.** 0.95 µM

**Q.** And the TGI [30]?
**A.** 0.454 µM

**Q.** What about the TGI [31] of the same compound?
**A.** 13.5 µM

**Q.** What about the TGI [32] of the same compound?
**A.** 0.102 µM

**Q.** And the TGI [33]?
**A.** 4.24 µM

**Q.** What about the TGI [34] of the same compound?
**A.** 23.5 µM

**Q.** What about the TGI [35] of the same compound?
**A.** 16.9 µM

**Q.** And the TGI [36]?
**A.** 17.5 µM

**Q.** And the TGI [37]?
**A.** 23.4 µM

**Q.** What about the TGI [38] of the same compound?
**A.** 14.4 µM

**Q.** What about the TGI [39] of the same compound?
**A.** 12.4 µM

**Q.** And the TGI [40]?
**A.** 13.4 µM

**Q.** And the TGI [41]?
**A.** 1.13 µM

**Q.** What about the TGI [42] of the same compound?
**A.** 18 µM

**Q.** What about the TGI [43] of the same compound?
**A.** 6.47 µM

**Q.** What about the TGI [44] of the same compound?
**A.** 1.46 µM

**Q.** What about the TGI [45] of the same compound?
**A.** 11.3 µM

**Q.** What about the TGI [46] of the same compound?
**A.** 13.4 µM

**Q.** What about the TGI [47] of the same compound?
**A.** 22.2 µM

**Q.** What about the TGI [48] of the same compound?
**A.** 14.1 µM

**Q.** And the TGI [49]?
**A.** > 100 µM

**Q.** And the TGI [50]?
**A.** 17.2 µM

**Q.** What about the TGI [51] of the same compound?
**A.** 14.4 µM

**Q.** And the TGI [52]?
**A.** 17 µM

**Q.** And the TGI [53]?
**A.** 12.7 µM

**Q.** And the TGI [54]?
**A.** 13.3 µM

**Q.** And the TGI [55]?
**A.** 1.76 µM

**Q.** And the TGI [56]?
**A.** 5.83 µM

**Q.** How did the TGI [1] turn out when `CC(C)(C)C1CCC2c3c([nH]c4ccccc34)C3C(=O)N(c4cccc([N+](=O)[O-])c4)C(=O)C3C2C1` (stereo not given) was run?
**A.** 43.7 µM

**Q.** What about the TGI [2] of the same compound?
**A.** > 100 µM

**Q.** And the TGI [3]?
**A.** > 100 µM

**Q.** What about the TGI [4] of the same compound?
**A.** > 100 µM

**Q.** And the TGI [5]?
**A.** 40 µM

**Q.** What about the TGI [6] of the same compound?
**A.** 54.2 µM

**Q.** What about the TGI [7] of the same compound?
**A.** > 100 µM

**Q.** And the TGI [8]?
**A.** 73.6 µM

**Q.** What about the TGI [9] of the same compound?
**A.** > 100 µM

**Q.** What about the TGI [10] of the same compound?
**A.** 66.8 µM

**Q.** And the TGI [11]?
**A.** 63.4 µM

**Q.** What about the TGI [12] of the same compound?
**A.** 40.4 µM

**Q.** What about the TGI [13] of the same compound?
**A.** > 100 µM

**Q.** What about the TGI [15] of the same compound?
**A.** 99.4 µM

**Q.** And the TGI [16]?
**A.** > 100 µM

**Q.** And the TGI [18]?
**A.** > 100 µM

**Q.** And the TGI [19]?
**A.** > 100 µM

**Q.** And the TGI [57]?
**A.** > 100 µM

**Q.** And the TGI [20]?
**A.** 25.3 µM

**Q.** And the TGI [21]?
**A.** 49.8 µM

**Q.** What about the TGI [22] of the same compound?
**A.** > 100 µM

**Q.** What about the TGI [23] of the same compound?
**A.** 59.7 µM

**Q.** What about the TGI [58] of the same compound?
**A.** > 100 µM

**Q.** And the TGI [24]?
**A.** 92.3 µM

**Q.** And the TGI [25]?
**A.** 81.5 µM

**Q.** And the TGI [26]?
**A.** 45.7 µM

**Q.** What about the TGI [27] of the same compound?
**A.** > 100 µM

**Q.** What about the TGI [28] of the same compound?
**A.** 53.1 µM

**Q.** And the TGI [59]?
**A.** > 100 µM

**Q.** And the TGI [29]?
**A.** > 100 µM

**Q.** And the TGI [30]?
**A.** 48.8 µM

**Q.** And the TGI [31]?
**A.** 74.2 µM

**Q.** And the TGI [32]?
**A.** > 100 µM

**Q.** And the TGI [33]?
**A.** > 100 µM

**Q.** And the TGI [34]?
**A.** > 100 µM

**Q.** What about the TGI [35] of the same compound?
**A.** > 100 µM

**Q.** What about the TGI [36] of the same compound?
**A.** > 100 µM

**Q.** And the TGI [38]?
**A.** > 100 µM

**Q.** What about the TGI [39] of the same compound?
**A.** 77.6 µM

**Q.** And the TGI [40]?
**A.** > 100 µM

**Q.** And the TGI [41]?
**A.** > 100 µM

**Q.** What about the TGI [42] of the same compound?
**A.** 64.1 µM

**Q.** And the TGI [43]?
**A.** > 100 µM

**Q.** And the TGI [45]?
**A.** > 100 µM

**Q.** And the TGI [46]?
**A.** 25.5 µM

**Q.** And the TGI [47]?
**A.** > 100 µM

**Q.** And the TGI [48]?
**A.** > 100 µM

**Q.** And the TGI [49]?
**A.** > 100 µM

**Q.** And the TGI [50]?
**A.** > 100 µM

**Q.** And the TGI [51]?
**A.** > 100 µM

**Q.** What about the TGI [52] of the same compound?
**A.** > 100 µM

**Q.** And the TGI [53]?
**A.** > 100 µM

**Q.** And the TGI [54]?
**A.** 61.6 µM

**Q.** What about the TGI [55] of the same compound?
**A.** > 100 µM

**Q.** What about the TGI [56] of the same compound?
**A.** > 100 µM

**Q.** Which results are given for `CCCCc1ccc(Nc2cc(=O)n(C)c(=O)[nH]2)cc1`?
**A.** TGI [1]: > 100 µM; TGI [2]: > 100 µM; TGI [3]: > 100 µM; TGI [4]: > 100 µM; TGI [5]: > 100 µM; TGI [6]: > 100 µM; TGI [8]: > 100 µM; TGI [10]: > 100 µM; TGI [11]: > 100 µM; TGI [12]: > 100 µM; TGI [13]: > 100 µM; TGI [15]: > 100 µM; TGI [16]: > 100 µM; TGI [17]: > 100 µM; TGI [18]: > 100 µM; TGI [19]: > 100 µM; TGI [57]: > 100 µM; TGI [20]: > 100 µM; TGI [21]: > 100 µM; TGI [22]: > 100 µM; TGI [23]: > 100 µM; TGI [58]: 72.9 µM; TGI [24]: > 100 µM; TGI [25]: > 100 µM; TGI [26]: > 100 µM; TGI [28]: > 100 µM; TGI [59]: > 100 µM; TGI [29]: > 100 µM; TGI [30]: > 100 µM; TGI [31]: > 100 µM; TGI [32]: > 100 µM; TGI [33]: > 100 µM; TGI [34]: > 100 µM; TGI [35]: > 100 µM; TGI [36]: > 100 µM; TGI [37]: > 100 µM; TGI [38]: > 100 µM; TGI [39]: > 100 µM; TGI [40]: > 100 µM; TGI [41]: > 100 µM; TGI [42]: > 100 µM; TGI [43]: > 100 µM; TGI [44]: > 100 µM; TGI [45]: > 100 µM; TGI [46]: > 100 µM; TGI [47]: > 100 µM; TGI [48]: > 100 µM; TGI [50]: > 100 µM; TGI [51]: > 100 µM; TGI [52]: > 100 µM; TGI [53]: > 100 µM; TGI [54]: > 100 µM; TGI [55]: > 100 µM; TGI [56]: > 100 µM
